Experimental findings from publication PMC9056950, “Synthesis and biochemical evaluation of cephalosporin analogues equipped with chemical tethers” (RSC Advances, 2020) are described below.

In one experiment the test system is T1, E. coli.
T1 construct: BW25113
Also on record: species or system Escherichia coli BW25113; broth growth inhibition, OD600, fitted MIC from dose curve, LB, 37 C. As to conditions: 16 h; inhibitor. How it is done: Stock solutions of each compound were prepared in 50% DMSO/water at ×100 the final concentration. In a 96-well plate, 2 μL of the test compounds were added to each well. Each plate included the positive control (750 μg mL^−1 chloramphenicol), the negative control (50% DMSO/water) and media only wells. To each test well was then added 198 μL of the required bacteria stock (OD 0.05). E. coli assays were carried out using LB broth, S. aureus were carried out using tryptic soy broth (TSB). Plates were incubated at 37 °C and the OD600 was measured (Epoch 2 Microplate Spectrophotometer, BioTek) every 30 min over a 17 h period. Tests were carried out in triplicate, the background absorbance was removed using reference wells, and the averages were determined. Dose curves were plotting using the OD600 after 16 h growth vs. compound concentration. MICs were defined as the minimum concentration of compound at which no significant growth was observed after 16 h incubation. MIC values were determined using GraphPad Prism (version 8.3.0). […] Further testing was carried out […] to determine whether the tethered compounds had any antibacterial activity. Table 2 summarises the MIC values determined for 1–12, MBC50 data is included in the ESI. ^†

The next experiment deals with T2, E. coli (BW25113).
T2 construct: BW25113
Nature of the experiment: microbe, parasite or virus in culture. As to conditions: Escherichia coli, read-out: MBC50 E. coli (BW25113). Also on record: minimum bactericidal concentration 50 on agar plates.

In a further experiment the target is T3, PBP4 (Bacillus subtilis, UniProt P32959).
T3 sequence (P32959 1-451): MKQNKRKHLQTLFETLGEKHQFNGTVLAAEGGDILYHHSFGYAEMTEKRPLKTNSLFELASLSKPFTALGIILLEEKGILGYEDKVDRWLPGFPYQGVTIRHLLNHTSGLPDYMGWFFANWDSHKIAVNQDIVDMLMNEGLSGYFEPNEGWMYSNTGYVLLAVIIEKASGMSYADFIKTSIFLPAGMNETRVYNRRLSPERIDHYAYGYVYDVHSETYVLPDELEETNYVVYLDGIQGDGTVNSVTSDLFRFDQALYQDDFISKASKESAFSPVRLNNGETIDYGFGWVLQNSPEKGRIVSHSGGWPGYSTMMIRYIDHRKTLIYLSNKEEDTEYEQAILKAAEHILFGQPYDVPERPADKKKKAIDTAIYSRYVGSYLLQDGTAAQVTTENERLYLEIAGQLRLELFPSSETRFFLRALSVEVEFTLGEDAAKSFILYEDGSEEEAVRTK
Nature of the experiment: biochemical. As to conditions: read-out: Average DTm/°C. Also on record: gene pbpE; commercial protein from Generon; fluorescent dye thermal shift assay, 500 nM PBP4 with 50 uM compound, delta Tm. How it is done: The thermal shift assay was carried out using the Protein Thermal Shift™ assay kit (Applied Biosystems). 3 μM of purified E. coli PBP3 was incubated with the β-lactam analogues at 300 μM concentration in a mixture containing the Protein Thermal Shift™ Dye. The samples were then heated in a StepOnePlus™ Real-Time PCR System from 25 to 95 °C at a rate of 1 °C min^−1. Tests were carried out in triplicate and the averages plotted as the negative first derivative vs. temperature. Reference wells, i.e. solutions consisting only of only PBP3 with dye, PBP3 only, and dye only, were used as controls. Melting temperature (Tm) values were determined with and without each compound, and the change in melting temperature (ΔTm) was obtained, Fig. 2. The thermal shift assay with PBP4 was carried out using the protocol described for PBP3, with the follow deriviatisation: 500 nM of purified Bacillus subtilis PBP4 was incubated with 50 μM of the β-lactam analogues. A thermal shift assay was used to investigate the binding of the cephalexin analogues to the therapeutic target, PBP, in vitro. This assay provides a fast and inexpensive method of detecting a ligand binding to a protein of interest. Briefly, the protein is gradually heated in the presence of a fluorescent dye that binds non-specifically to the hydrophobic surfaces. […] A change in the melting temperature (Tm) when the protein is heated in the presence of a ligand, indicates a protein–ligand interaction. […] The PBPs can be divided into two main categories: high molecular mass (HMM) and low molecular mass (LMM).[13] PBP3 was chosen as a representative HMM PBP, and PBP4 as a representative LMM PBP. Cephalexin (1) has been previously reported to show good binding affinities for both PBP3 and PBP4.[14] Penicillin (11) and cefpodoxime (12) were included as positive controls. AmpC (Uniprot ID: P00811) was purchased from Abcam plc (Cambridge, UK). PBP4 (Uniprot ID: P32959) was purchased from Generon (Slough, UK).

Experiment [1] addresses T4, PBP3 (Escherichia coli, UniProt P0AD68).
T4 construct: gene ftsI
T4 sequence (P0AD68 44-588): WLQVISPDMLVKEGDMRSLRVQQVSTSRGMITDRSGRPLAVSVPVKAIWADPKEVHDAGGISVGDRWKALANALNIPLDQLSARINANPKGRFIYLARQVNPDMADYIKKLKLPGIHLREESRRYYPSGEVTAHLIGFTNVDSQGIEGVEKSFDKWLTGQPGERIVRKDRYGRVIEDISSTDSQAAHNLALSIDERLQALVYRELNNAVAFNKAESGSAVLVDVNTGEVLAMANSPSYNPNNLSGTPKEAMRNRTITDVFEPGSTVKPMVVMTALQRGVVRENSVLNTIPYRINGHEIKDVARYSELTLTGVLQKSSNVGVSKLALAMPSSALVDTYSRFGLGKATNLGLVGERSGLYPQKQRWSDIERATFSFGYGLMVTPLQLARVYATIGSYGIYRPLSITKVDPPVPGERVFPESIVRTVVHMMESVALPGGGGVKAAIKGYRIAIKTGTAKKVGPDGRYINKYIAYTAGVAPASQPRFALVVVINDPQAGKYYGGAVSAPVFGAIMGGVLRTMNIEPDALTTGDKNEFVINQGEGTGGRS
In words: thermal shift, ligand titration. Format: binding. As to conditions: 2 μM PBP3, 25 min at room temperature before melt 35-70 °C; approximate affinity, not a Kd.

Experiment [2] addresses T4, PBP3. Nature of the experiment: thermal shift (Protein Thermal Shift dye). The conditions noted are these: 3 μM PBP3, 300 μM ligand, 25-95 °C at 1 °C/min; Tm increased. Format: binding.

SMILES strings stand for the structures. Converted amounts (≈) assume the structure as drawn.

On to `CC1=C(C(=O)O)N2C(=O)[C@@H](NC(=O)[C@H](N)c3ccccc3)[C@H]2SC1` [compound 1, cephalexin], for which, in the experiment on E. coli, the “MIC (E. coli, best-fit)” value came to 94.91 µM (≈ 33 µg/mL). In addition, the MBC with E. coli (BW25113) is greater than 400 µM. The ΔTm at 50 µM at PBP4 was -0.882 °C. Moreover, the “equivalents required for >Tm1/2” value at PBP3 [1] is 75 equivalents.
As for `CC1=C(C(=O)O)N2C(=O)[C@@H](NC(=O)[C@H](NC(=O)COCC(=O)NCCOCCOCCOCCOCCNC(=O)CCCCCN3C(=O)C=CC3=O)c3ccccc3)[C@H]2SC1` [compound 2, (6R,7R)-7-((R)-30-(2,5-Dioxo-2,5-dihydro-1H-pyrrol-1-yl)-4,8,25-trioxo-2-phenyl-6,12,15,18,21-pentaoxa-3,9,24-triazatriacontanamido)-3-methyl-8-oxo-5-thia-1-azabicyclo[4.2.0]oct-2-ene-2-carboxylic acid], in the experiment on E. coli (BW25113), the MBC was greater than 400 µM. Also, at PBP4, the ΔTm at 50 µM was -1.95 °C. Besides, the ΔTm entry at PBP3 [2] is recorded as “all of the analogues tested caused an increase in the Tm with PBP3”.
For `CC1=C(C(=O)O)N2C(=O)[C@@H](NC(=O)[C@H](NC(=O)CCCCCN3C(=O)C=CC3=O)c3ccccc3)[C@H]2SC1` [compound 3, (6R,7R)-7-((R)-2-(6-(2,5-dioxo-2,5-dihyrdo-1H-pyrrol-1-yl)hexanamido)-2-phenylacetamido)-3-methyl-8-oxo-5-thia-1-azabicyclo[4.2.0]oct-2-ene-2-carboxylic acid], in that order: greater than 400 µM, -0.378 °C and “all of the analogues tested caused an increase in the Tm with PBP3”.
The corresponding values for `C#CCCC(=O)N[C@@H](C(=O)N[C@@H]1C(=O)N2C(C(=O)O)=C(C)CS[C@H]12)c1ccccc1` [compound 4, (6R,7R)-3-Methyl-8-oxo-7-[(2R)-2-(pent-4-ynamido)-2-phenylacetamido]-5-thia-1-azabicyclo[4.2.0]oct-2-ene-2-carboxylic acid] are greater than 400 µM, -0.853 °C and “all of the analogues tested caused an increase in the Tm with PBP3”.
Turning to `CC1=C(C(=O)O)N2C(=O)[C@@H](NC(=O)[C@H](NC(=O)CCCCC3CCSS3)c3ccccc3)[C@H]2SC1` (stereo partly drawn) [compound 5, (6R,7R)-7-[(2R)-2-[5-(1,2-Dithiolan-3-yl)pentanamido]-2-phenylacetamido]-3-methyl-8-oxo-5-thia-1-azabicyclo[4.2.0]oct-2-ene-2-carboxylic acid], the MBC in the experiment on E. coli (BW25113) was greater than 400 µM. Also, the ΔTm at 50 µM on PBP4 is -0.464 °C. For the same compound, on PBP3 [2], the ΔTm entry is reported as “all of the analogues tested caused an increase in the Tm with PBP3”.
The corresponding values for `CC1=C(C(=O)O)N2C(=O)[C@@H](NC(=O)[C@H](NC(=O)CCCC(=O)ON3C(=O)CCC3=O)c3ccccc3)[C@H]2SC1` [compound 6, (6R,7R)-7-[(2R)-2-{5-[(2,5-Dioxopyrrolidin-1-yl)oxy]-5-oxopentanamido}-2-phenylacetamido]-3-methyl-8-oxo-5-thia-1-azabicyclo[4.2.0]oct-2-ene-2-carboxylic acid] are greater than 400 µM, -0.708 °C and “all of the analogues tested caused an increase in the Tm with PBP3”.
The corresponding values for `CC1=C(C(=O)O)N2C(=O)[C@@H](NC(=O)[C@H](NC(=O)CCCC(=O)O)c3ccccc3)[C@H]2SC1` [compound 7, (6R,7R)-7-[(2R)-2-(4-Carboxybutanamido)-2-phenylacetamido]-3-methyl-8-oxo-5-thia-1-azabicyclo[4.2.0]oct-2-ene-2-carboxylic acid] are greater than 400 µM, -0.422 °C and “all of the analogues tested caused an increase in the Tm with PBP3”.
Regarding `CC(=O)N[C@@H](C(=O)N[C@@H]1C(=O)N2C(C(=O)O)=C(C)CS[C@H]12)c1ccccc1` [compound 8, (6R,7R)-7-[(2R)-2-Acetamido-2-phenylacetamido]-3-methyl-8-oxo-5-thia-1-azabicyclo[4.2.0]oct-2-ene-2-carboxylic acid], the MBC with E. coli (BW25113) is greater than 400 µM. On PBP4, the ΔTm at 50 µM was -0.248 °C. For the same compound, the ΔTm entry on PBP3 [2] is given as “all of the analogues tested caused an increase in the Tm with PBP3”.
The corresponding values for `CC1=C(C(=O)O)N2C(=O)[C@@H](NC(=O)[C@H](NC(=O)OC(C)(C)C)c3ccccc3)[C@H]2SC1` [compound 9, (6R,7R)-7-[(2R)-2-{[(Tert-butoxy)carbonyl]amino}-2-phenylacetamido]-3-methyl-8-oxo-5-thia-1-azabicyclo[4.2.0]oct-2-ene-2-carboxylic acid] are greater than 400 µM, -0.809 °C and “all of the analogues tested caused an increase in the Tm with PBP3”.
The corresponding values for `CC1=C(C(=O)O)N2C(=O)[C@@H](NC(=O)[C@H](NC(=O)CCCCN)c3ccccc3)[C@H]2SC1` [compound 10, (6R,7R)-7-[(2R)-2-(5-Aminopentanamido)-2-phenylacetamido]-3-methyl-8-oxo-5-thia-1-azabicyclo[4.2.0]oct-2-ene-2-carboxylic acid] are greater than 400 µM, -0.0272 °C and “all of the analogues tested caused an increase in the Tm with PBP3”.
Turning to `COCC1=C(C(=O)O)N2C(=O)[C@@H](NC(=O)/C(=N\OC)c3csc(N)n3)[C@H]2SC1` [compound 12, cefpodoxime], the “MIC (E. coli, best-fit)” value against E. coli came to 7.744 µM (≈ 3.31 µg/mL). Moreover, the MBC in the experiment on E. coli (BW25113) was 100 µM (≈ 42.7 µg/mL). On PBP4, the ΔTm at 50 µM was -0.695 °C.
